Where a SMILES comes first, the peptide text is derived from it. [ ]: non-standard residue; d: D form. Nva = CCC[C@H](N)C(=O)O
Key:
[1] = tested on: peptidases present in cytoplasmic extracts obtained from NF1, NF2, NF3, LNF1, LNF2, LNF3, and SC 5314 cells; assay: Peptide cleavage rate in cell-free extract (Cd-ninhydrin); format: in vitro ADME, Candida albicans; conditions: pH 6.5, 30°C
Description: Yeast cells from the overnight culture in YNB-SG were harvested by centrifugation and washed with cold 25 mM potassium phosphate buffer (pH 6.5). Cells were then suspended in a minimal amount of the buffer and disrupted with the French press. The resulting suspension was centrifuged (35,000 ×g, 4°C, 45 min), and the supernatant was used as a cell-free extract for the determination of peptide cleavage rates.
The incubation mixtures, consisting of 10 mL of a 200 mM peptide solution in 50 mM potassium phosphate buffer (pH 6.5) and 2 mL of an appropriately diluted crude extract (final protein concentration, 0.1–0.5 mg mL^-1), were incubated at 30°C. At 5 min intervals, 2 mL aliquots were withdrawn and heated at 100°C for 3 min. The resulting suspensions were centrifuged to remove the protein precipitates and the concentration of free amino acids in the supernatant was determined by the Cd-ninhydrin procedure ([Doi et al., 1981]).

[2] = tested on: C. albicans isolates NF1-3 and LNF1-3; assay: Initial peptide uptake rate by isolates resistant to F2/F3; format: cell-based, Candida albicans; conditions: all six isolates NF1-3, LNF1-3; Figure 4
Description: (§1) Yeast cells grown exponentially in the YNB-SG medium were harvested by centrifugation (3000 ×g, 5 min), washed with 50 mM potassium phosphate buffer (pH 5.0 or 6.5), and suspended in the same buffer containing 1% glucose, to a final cell density corresponding to A660 ≅ 1.0. The cell suspension was incubated at 30°C. After 10 min, an oligopeptide solution was added, to give a final concentration of 100 μM. At that moment and at 5 min intervals thereafter, 2 mL samples of the cell suspension were withdrawn, immediately filtered through the Whatman GF/A filters and the filtrates were used to determine the residual peptide concentration. Then, the 1 mL portions of the filtrates were taken and combined with 1.25 mL aliquots of a solution containing 4% Na2B4O7 × 10 H2O and 0.8 mg mL^-1 of 2,4,6-trinitrobenzenesulfonate. The reaction was carried out at 37°C for 30 min. The A420 values were measured and the peptide concentration was read from the appropriate standard curve. Data were plotted as nanomoles of an oligopeptide, taken up by 1 mg (dry weight) of cells versus time. The initial uptake velocities were determined from the slopes of the linear part of the curves, in the 0- to 10-min region.
It is therefore clear that the diminished sensitivity of all six isolates to F2 and F3 was due to the reduced uptake, most likely by permease(s) of the PTR system.

[3] = tested on: C. albicans opt1–opt5Δ; assay: Initial peptide uptake rate; format: cell-based, Candida albicans; conditions: 50 mM potassium phosphate buffer (pH 5.0 or 6.5) + 1% glucose, 30°C, 100 μM peptide, TNBS A420, slope 0- to 10-min
Description: as §1

[4] = tested on: C. albicans SC5314; assay: Initial peptide uptake rate; format: cell-based, Candida albicans; conditions: SC 5314; cells grown in YNB-SG; 50 mM potassium phosphate buffer (pH 5.0 or 6.5) + 1% glucose, 30°C, 100 μM peptide, residual peptide by TNBS A420, slope 0- to 10-min
Description: as §1

[5] = tested on: C. albicans opt1–opt5Δ ptr2Δ ptr22Δ; assay: Initial peptide uptake rate; format: cell-based, Candida albicans; conditions: 50 mM potassium phosphate buffer (pH 5.0 or 6.5) + 1% glucose, 30°C, 100 μM peptide, TNBS A420, slope 0- to 10-min
Description: as §1

[6] = tested on: C. albicans opt5Δ; assay: Initial peptide uptake rate; format: cell-based, Candida albicans; conditions: 50 mM potassium phosphate buffer (pH 5.0 or 6.5) + 1% glucose, 30°C, 100 μM peptide, TNBS A420, slope 0- to 10-min
Description: as §1

[7] = tested on: C. albicans ptr2Δ ptr22Δ; assay: Initial peptide uptake rate; format: cell-based, Candida albicans; conditions: 50 mM potassium phosphate buffer (pH 5.0 or 6.5) + 1% glucose, 30°C, 100 μM peptide, TNBS A420, slope 0- to 10-min
Description: as §1

[8] = tested on: C. albicans opt4Δ; assay: Initial peptide uptake rate; format: cell-based, Candida albicans; conditions: 50 mM potassium phosphate buffer (pH 5.0 or 6.5) + 1% glucose, 30°C, 100 μM peptide, TNBS A420, slope 0- to 10-min
Description: as §1

[9] = tested on: C. albicans opt2Δ opt3Δ; assay: Initial peptide uptake rate; format: cell-based, Candida albicans; conditions: 50 mM potassium phosphate buffer (pH 5.0 or 6.5) + 1% glucose, 30°C, 100 μM peptide, TNBS A420, slope 0- to 10-min
Description: as §1

[10] = tested on: C. albicans opt1Δ; assay: Initial peptide uptake rate; format: cell-based, Candida albicans; conditions: 50 mM potassium phosphate buffer (pH 5.0 or 6.5) + 1% glucose, 30°C, 100 μM peptide, TNBS A420, slope 0- to 10-min
Description: as §1

Question: CCC[C@H](NC(=O)[C@@H](N)CCCCN)C(=O)N[C@@H](Cc1ccccc1)C(=O)N[C@@H](CCSC)C(=O)N[C@@H](CC(=O)O)C(=O)N1CCC[C@H]1C(=O)O [Peptide F3, Lys-Nva-FMDP] (H-K[Nva]FMDP-OH) was tested. Which “Velocity of proteolytic cleavage relative to F6, F7, and F11” value [1] did it give?
Answer: Its value is “two to three times higher”.

Question: And the “Initial uptake rate relative to wild type SC5314 cells” value [2]?
Answer: Its value is “lower”.

Question: And the “Uptake rate ± SD” value [3]?
Answer: The value was 2.98 ± 0.18 nmol min^-1 (mg dry weight)^-1.

Question: And the “Uptake rate ± SD” value [4]?
Answer: Its value is 4.32 ± 0.14 nmol min^-1 (mg dry weight)^-1.

Question: What about the “Uptake rate ± SD” value [5] of the same compound?
Answer: Its value is <0.1 nmol min^-1 (mg dry weight)^-1.

Question: And the “Uptake rate ± SD” value [6]?
Answer: The value was 4.19 ± 0.16 nmol min^-1 (mg dry weight)^-1.

Question: What about the “Uptake rate ± SD” value [7] of the same compound?
Answer: Its value is 0.11 ± 0.04 nmol min^-1 (mg dry weight)^-1.

Question: What about the “Uptake rate ± SD” value [8] of the same compound?
Answer: Its value is 4.12 ± 0.15 nmol min^-1 (mg dry weight)^-1.

Question: What about the “Uptake rate ± SD” value [9] of the same compound?
Answer: Its value is 3.23 ± 0.19 nmol min^-1 (mg dry weight)^-1.

Question: And the “Uptake rate ± SD” value [10]?
Answer: Its value is 4.08 ± 0.14 nmol min^-1 (mg dry weight)^-1.

Source: article PMC5673977, “Transport Deficiency Is the Molecular Basis of Candida albicans Resistance to Antifungal Oligopeptides” (Frontiers in Microbiology, 2017)
